Earlier results on one molecule are cited in US20240398820A1, “METHODS FOR TREATMENT OF PULMONARY HYPERTENSION” (Respira Therapeutics, Inc., priority 2023, published 2024).

For data set [1] the following is noted: inhaled, following pulmonary administration.
The conditions of data set [2]: in vivo.
The conditions of data set [3]: human patients with PAH, 5 mg orally twice per day.

`CCCc1nc(C)c2c(=O)nc(-c3cc(S(=O)(=O)N4CCN(CC)CC4)ccc3OCC)[nH]n12` [Vardenafil, 1-[[3-(1,4-dihydro-5-methyl-4-oxo-7-propylimidazo[5,1-f][1,2,4]triazin-2-yl)-4-ethoxyphenyl]sulfonyl]-4-ethyl-piperazine]: the dissociation rate entry is on record as “slow dissociation rate”. Also, the tmax in data set [1] is reported as no more than 2 min. The clearance entry in data set [2] is on record as “rapid clearance”. Besides, the “safety and efficacy in PAH” value in data set [3] was “safe and effective”.
